According to PubChem BioAssay AID1845217 (Molecular Pharmacology Branch, DTP, NCI, 2023):

Test system: VA-ES-BJ tumor spheroid viability
Assay: Anticancer human tumor VA-ES-BJ cell line growth inhibition;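 further: spheroids exposed to compounds for seven days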;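 on viability, T/C: percent of DMSO vehicle control viability so 100% = untreated growth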
Settings: spheroids with HUVEC and MSC; for IC50: curve of first compound; for viability, T/C: stronger effect = lower value
In short: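 Single agents and combinations were tested on spheroids built from tumor cells plus HUVEC and hMSC, at half-log dilutions starting at or near clinical Cmax, else 10 microM; final DMSO 0.25% (v/v).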

[1] = second compound 0.003 µM, first compound 0.0316 µM
[2] = second compound 0.003 µM, first compound 0.1 µM
[3] = second compound 0.003 µM, first compound 0.316 µM
[4] = second compound 0.003 µM, first compound 1 µM
[5] = second compound 0.003 µM, first compound 3.16 µM
[6] = second compound 0.003 µM, first compound 10 µM
[7] = second compound 0.00949 µM, first compound 0.0316 µM
[8] = second compound 0.00949 µM, first compound 0.1 µM
[9] = second compound 0.00949 µM, first compound 0.316 µM
[10] = second compound 0.00949 µM, first compound 1 µM
[11] = second compound 0.00949 µM, first compound 3.16 µM
[12] = second compound 0.00949 µM, first compound 10 µM
[13] = second compound 0.03 µM, first compound 0.0316 µM
[14] = second compound 0.03 µM, first compound 0.1 µM
[15] = second compound 0.03 µM, first compound 0.316 µM
[16] = second compound 0.03 µM, first compound 1 µM
[17] = second compound 0.03 µM, first compound 3.16 µM
[18] = second compound 0.03 µM, first compound 10 µM
[19] = second compound 0.0949 µM, first compound 0.0316 µM
[20] = second compound 0.0949 µM, first compound 0.1 µM
[21] = second compound 0.0949 µM, first compound 0.316 µM
[22] = second compound 0.0949 µM, first compound 1 µM
[23] = second compound 0.0949 µM, first compound 3.16 µM
[24] = second compound 0.0949 µM, first compound 10 µM
[25] = second compound 0.3 µM, first compound 0.0316 µM
[26] = second compound 0.3 µM, first compound 0.1 µM
[27] = second compound 0.3 µM, first compound 0.316 µM
[28] = second compound 0.3 µM, first compound 1 µM
[29] = second compound 0.3 µM, first compound 3.16 µM
[30] = second compound 0.3 µM, first compound 10 µM

| SMILES | IC50 (second compound 0.003 µM) [nM] | IC50 (second compound 0.00949 µM) [nM] | IC50 (second compound 0.03 µM) [nM] | IC50 (second compound 0.0949 µM) [nM] | IC50 (second compound 0.3 µM) [nM] | viability, T/C [1] [%] | viability, T/C [2] [%] | viability, T/C [3] [%] | viability, T/C [4] [%] | viability, T/C [5] [%] | viability, T/C [6] [%] | viability, T/C [7] [%] | viability, T/C [8] [%] | viability, T/C [9] [%] | viability, T/C [10] [%] | viability, T/C [11] [%] | viability, T/C [12] [%] | viability, T/C [13] [%] | viability, T/C [14] [%] | viability, T/C [15] [%] | also measured |
| --- | --- | --- | --- | --- | --- | --- | --- | --- | --- | --- | --- | --- | --- | --- | --- | --- | --- | --- | --- | --- | --- |
| CC(C)n1c(=O)n(C)c2cnc3cc(F)c(-c4ccc(OCCCN5CCCCC5)nc4)cc3c21 + CC[C@@]1(O)C(=O)OCc2c1cc1n(c2=O)Cc2cc3c(CN(C)C)c(O)ccc3nc2-1 | 3970 | < 31.6 | < 31.6 | < 31.6 | < 31.6 | 82.7 | 76 | 80 | 77.3 | 54.7 | 30.8 | 50.8 | 46.3 | 45.3 | 44.5 | 37.3 | 20.5 | 30.3 | 27.4 | 31.4 | viability, T/C [16]: 26.9%; viability, T/C [17]: 27.5%; viability, T/C [18]: 11.9%; viability, T/C [19]: 6.85%; viability, T/C [20]: 6.85%; viability, T/C [21]: 7.33%; viability, T/C [22]: 7.9%; viability, T/C [23]: 8.2%; viability, T/C [24]: 7.69%; viability, T/C [25]: 4.4%; viability, T/C [26]: 4.06%; viability, T/C [27]: 3.67%; viability, T/C [28]: 3.49%; viability, T/C [29]: 3.07%; viability, T/C [30]: 2.74% |
| CC1COCCN1c1cc(-c2ccnn2C)c2ccnc(-c3ccn[nH]3)c2n1 (stereo not given) + CC[C@@]1(O)C(=O)OCc2c1cc1n(c2=O)Cc2cc3c(CN(C)C)c(O)ccc3nc2-1 | 56.3 | < 31.6 | < 31.6 | < 31.6 | < 31.6 | 63.9 | 35.5 | 22.4 | 12.1 | 6.47 | 6.01 | 40.4 | 27.1 | 21.2 | 8.86 | 5.91 | 5.08 | 22.6 | 16.9 | 12.8 | viability, T/C [16]: 6.37%; viability, T/C [17]: 4.95%; viability, T/C [18]: 4.49%; viability, T/C [19]: 8.54%; viability, T/C [20]: 7.09%; viability, T/C [21]: 6.46%; viability, T/C [22]: 5.74%; viability, T/C [23]: 4.46%; viability, T/C [24]: 4.49%; viability, T/C [25]: 6.2%; viability, T/C [26]: 5.86%; viability, T/C [27]: 4.85%; viability, T/C [28]: 4.65%; viability, T/C [29]: 4.8%; viability, T/C [30]: 4.19% |
